Reference: paper PMC13042316 (Open journal of immunology, 2011)

Molecular target: recombinant human MBL (mannose-binding lectin) (Homo sapiens, UniProt P11226)
Test: ELISA, inhibition of MBL binding to immobilised mannan

recombinant human MBL (mannose-binding lectin), sequence (P11226 21-248): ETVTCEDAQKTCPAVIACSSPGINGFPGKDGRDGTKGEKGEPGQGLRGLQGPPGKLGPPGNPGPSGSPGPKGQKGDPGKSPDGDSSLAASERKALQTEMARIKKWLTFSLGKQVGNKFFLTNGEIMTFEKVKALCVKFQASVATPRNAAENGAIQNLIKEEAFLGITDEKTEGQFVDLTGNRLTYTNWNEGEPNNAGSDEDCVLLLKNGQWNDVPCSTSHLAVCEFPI

## OC[C@H]1O[C@@](CO)(O[C@H]2O[C@H](CO)[C@@H](O)[C@H](O)[C@H]2O)[C@@H](O)[C@@H]1O [sucrose]
  IC50: > 11 mM
